PMC3003687, “α-Galactosylceramide Analogs with Weak Agonist Activity for Human iNKT Cells Define New Candidate Anti-Inflammatory Agents” (PLoS ONE, 2010)

How the values were obtained:
[1] = target: Human iNKT TCRs (Homo sapiens, UniProt A0A075B6N4+A0A0B4J240+P15813); test: Equilibrium binding of analog-loaded hCD1d tetramers to iNKT cell clones
Text: For flow cytometric analysis, 6B11 (Vα24Jα18 specific) and mAbs specific for human CD3, CD4, CD8α, CD19, CD40L (CD154), CD56, CD69, GM-CSF & IFNγ were obtained from BD Biosciences. IL-4 and IL-13 specific mAbs were from Biolegend. Vα24 (C15) and Vβ11 (C21) specific mAb were from Immunotech. For antibody blocking in culture assays, non-specific isotype matched control, IL-2, IFNγ, IL-12p70 and CD40L specific mAbs without preservatives were obtained from BD Biosciences and IL-18 specific mAb from Medical & Biological Laboratories (MBL, Nagoya, Japan). Phycoerythrin and allophycocyanin labeled human CD1d tetramers were prepared in our laboratory as previously described. Curves of tetramer equilibrium binding constants and graphs were plotted using the Graphpad Prism Software (Version 5). KD values were calculated using the function non-linear fit (hyperbola, one binding site).
To characterize in more detail the iNKT cell TCR recognition of αGalCer analogs presented by human CD1d, we generated soluble and fluorescent tetrameric hCD1d molecules loaded with each of the glycolipid analogs. […] This was similar to the previously reported failure of mouse CD1d tetramer loaded with lysosulfatide to bind detectably to murine non-invariant and sulfatide specific NKT cells, despite a clear reactivity to this lipid upon presentation by APCs; [40]. […] To quantitate their binding avidities to iNKT cell TCRs, we used titration of analog-loaded hCD1d tetramers to determine equilibrium dissociation constants (KD), which are inversely proportional to avidity (Figure 3A and 3B).
Figure 3 Characterization of human iNKT cell TCR interactions with analog-loaded tetramers. (A) iNKT cell clones were stained with titrated amounts of hCD1d tetramers loaded with the indicated glycolipids (abbreviations as in legend to Figure 1), and the measured MFI values are plotted for selected glycolipids. (B) The equilibrium dissociation constants (KD, inversely proportional to TCR avidity) were determined as the concentrations of tetramers required to yield 50% of maximal binding. Data shown were obtained using the CD4^+ iNKT cell clone HDD3, and similar results (not shown) were obtained with a second CD4^+ clone (HDD11) and a CD4^−8^− double negative iNKT cell clone (HDE3). (C) Analysis of iNKT cell clones labeled with 20 nM of hCD1d tetramers which were loaded with variable excesses of analog to constant hCD1d (25 to 1000 fold molar excess of glycolipid to hCD1d protein). The measured MFI values were normalized as the percent of the maximum staining intensity obtained with each analog loaded tetramer. Data presented were generated with HDD3 (CD4+) iNKT cell clone, and similar results (not shown) were obtained with HDE3 (DN) clone.

[2] = tested on: human iNKT cells and NK cells; test: In vitro transactivation assay (CFSE-labeled iNKT cells co-cultured with PBMC); type: cell-based; conditions: for IL-12 levels in supernatants / IL-13 levels in supernatants / IL-18 levels in supernatants / global IFNγ production in supernatants: 24 h, ELISA
Experimental: iNKT cells were stained for 5 minutes with 1–20 µM of CFSE (Molecular probes) and 5% FCS in PBS and washed twice. As a positive control, a fraction of CFSE-labeled iNKT cells were preactivated for 30 minutes with 1 µg/mL of PMA and 250 ng/mL of Ionomycin (Sigma-Aldrich) in culture medium and extensively washed. The experiment was initiated by adding CFSE-labeled unstimulated or PMA/Ionomycin-preactivated iNKT cells to freshly prepared PBMC pulsed with vehicle or αGalCer analogs at the indicated concentrations and at an iNKT/PBMC ratio of 1/10 or 1/40. Supernatants and cells were harvested from parallel conditions after the indicated time of co-culture. For intracellular cytokine staining, brefeldin A (Golgiplug, BD Biosciences) was added 4 h before harvesting the cells, which were fixed with 1% paraformaldehyde and permeabilized with 0.1% saponin (Sigma-Aldrich) prior to mAb staining. Experiments with blocking antibodies were performed with 10 µg/mL of preservative-free mAbs, including isotype matched control, anti-IL-2, anti-IL-12, anti-IFNγ and anti-CD40L (all from BD Biosciences) or anti-IL-18 (MBL). For detection of CD40L expression by iNKT cells, co-cultures of iNKT and PBMC were prepared as above, except that monensin (Golgistop, BD Biosciences) and fluorescent CD40L specific mAb (1/10 or 1/20 final dilution) were added at the beginning of the experiment, as previously described.
Figure 6 A novel in vitro “transactivation assay” to assess the ability of human iNKT cells to activate other leukocytes. (A) Format for analysis of transactivation of bystander leukocytes. Flow cytometric analysis was carried out for culture containing iNKT cells co-cultured for 24 hours with fresh human PBMC at a 1/10 ratio. For the intracellular detection of IFNγ, Brefeldin A was added for the last 4 hours. Representative electronic gating is shown for the discrimination of CFSE-labeled iNKT cells, B cells, T cells, and NK cells to measure IFNγ expression (or CD69 expression, not shown). Filled black histograms show staining with vehicle control and are overlaid with open gray histograms for stimulation with 100 nM of KRN7000. (B) Dose-dependent IFNγ and CD40L expression by iNKT cells (top and middle graph, respectively) and IFNγ production by transactivated NK cells (bottom graph), after 24 h of co-culture of CFSE-labeled iNKT cells and PBMCs at a 1/10 ratios and the indicated concentration of either KRN7000 (black filled circles) or the adamantanoyl (AD) analog (open circles). Data are presented for a CD4^+ clone (HDD3), and similar results (not shown) were obtained with a DN clone (HDE3). (C) Effect of specific blockade of various cytokines and CD40L on the activation of iNKT cells and transactivated NK cells. CFSE-labeled iNKT cells and PBMCs were co-cultured at a 1/40 ratio for the indicated time, in the presence of KRN7000 at 25 nM and 10 µg/mL of isotype matched control or specific blocking antibodies as indicated. Average percentages of IFNγ^+ iNKT cells and NK cells, assessed by intracellular staining at 24, 48 and 66 hours, are indicated in the left and right plots, respectively.
Figure 7 Comparison of αGalCer analogs for their ability to induce NK cell transactivation. (A) iNKT cell clones were co-cultured for 24 hours with fresh human PBMC at a 1/10 ratio with 100 nM of the indicated analogs, and Brefeldin A was added for the last 4 hours. The percentages of IFNγ^+ iNKT cells (open bars) and IFNγ^+ NK cells (filled bars) are indicated. Cytokine levels were assessed by ELISA in supernatants from identical conditions in absence of Brefeldin A treatment: (B) IFNγ levels (open bars) and IL-13 levels (filled bars); the detection limit was 82.3 ng/mL for both cytokines. (C) IL-12 levels (open bars) and IL-18 levels (filled bars); the detection limit was 27.4 ng/mL. Results obtained with a CD4^+ clone (HDD3) are presented, and similar data (not shown) were obtained with a DN clone (HDE3).

Human iNKT TCRs, sequence (P15813 20-301): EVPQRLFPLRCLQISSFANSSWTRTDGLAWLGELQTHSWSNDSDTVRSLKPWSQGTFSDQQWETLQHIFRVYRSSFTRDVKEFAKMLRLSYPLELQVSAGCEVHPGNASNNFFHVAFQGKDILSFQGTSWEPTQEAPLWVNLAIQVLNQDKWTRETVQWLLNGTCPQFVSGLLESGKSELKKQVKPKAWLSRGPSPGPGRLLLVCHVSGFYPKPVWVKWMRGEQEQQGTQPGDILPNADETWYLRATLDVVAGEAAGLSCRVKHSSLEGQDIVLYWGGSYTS
Human iNKT TCRs, sequence (P01848 whole entry, further chain): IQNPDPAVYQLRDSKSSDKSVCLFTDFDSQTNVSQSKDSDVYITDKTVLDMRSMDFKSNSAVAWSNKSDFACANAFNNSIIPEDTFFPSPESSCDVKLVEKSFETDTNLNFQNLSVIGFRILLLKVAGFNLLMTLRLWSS
Human iNKT TCRs, sequence (A0A0B4J240 22-114): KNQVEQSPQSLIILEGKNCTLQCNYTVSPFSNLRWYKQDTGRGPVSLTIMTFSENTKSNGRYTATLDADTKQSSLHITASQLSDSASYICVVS
Human iNKT TCRs, sequence (P61769 21-119, further chain): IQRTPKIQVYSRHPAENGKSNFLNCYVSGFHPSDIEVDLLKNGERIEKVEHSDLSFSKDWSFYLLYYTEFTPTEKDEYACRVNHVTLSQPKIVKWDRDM
Human iNKT TCRs, sequence (A0A075B6N4 22-114): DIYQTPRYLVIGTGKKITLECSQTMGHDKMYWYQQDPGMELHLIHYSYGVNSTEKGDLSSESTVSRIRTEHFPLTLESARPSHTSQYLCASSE

SMILES: CCCCC/C=C\C/C=C\CCCCCCCCCC(=O)N[C@@H](CO[C@H]1O[C@H](CO)[C@H](O)[C@H](O)[C@H]1O)[C@H](O)[C@H](O)CCCCCCCCCCCCCC [C20:2]
- avidity of human iNKT TCRs for analog in complex with hCD1d [1]: strong avidity
- IL-12 levels in supernatants ([2]; 100 nM): detectable IL-12 generation
- IL-13 levels in supernatants ([2]; 100 nM): high IL-13 levels
- IL-18 levels in supernatants ([2]; 100 nM): enhanced IL-18 levels compared to vehicle control
- global IFNγ production in supernatants ([2]; 100 nM): high global production of IFNγ

SMILES: CCCCC/C=C\C/C=C\C/C=C\C/C=C\CCCC(=O)N[C@@H](CO[C@H]1O[C@H](CO)[C@H](O)[C@H](O)[C@H]1O)[C@H](O)[C@H](O)CCCCCCCCCCCCCC [C20:4]
- avidity of human iNKT TCRs for analog in complex with hCD1d [1]: strong avidity
- IL-12 levels in supernatants ([2]; 100 nM): detectable IL-12 generation
- IL-13 levels in supernatants ([2]; 100 nM): high IL-13 levels
- IL-18 levels in supernatants ([2]; 100 nM): enhanced IL-18 levels compared to vehicle control
- global IFNγ production in supernatants ([2]; 100 nM): high global production of IFNγ

SMILES: CCCCCCCCCCCCCCCCCCCCCCCCCC(=O)N[C@@H](CO[C@H]1O[C@H](CO)[C@H](O)[C@H](O)[C@H]1O)[C@H](O)[C@H](O)CCCCCCCCCCCCCC [KRN7000, reference compound]
- avidity of human iNKT TCRs for analog in complex with hCD1d [1]: strong avidity
- IFNγ production in bystander leukocytes (intracellular staining) ([2]; 100 nM, iNKT/PBMC 1/10): detectable at 24 h in NK cells, but not in T cells or B cells
- CD69 induction in bystander leukocytes upon iNKT cell stimulation ([2]; not shown): nearly all B cells and NK cells, but not T cells, became CD69^+
